Among the test systems are SNB-19; TK-10; HOP-62; Hs-578T; HCT-116; RXF 393; MDA-N; ACHN; NCI-H226; A498; OVCAR-8; OVCAR-3; NCI-H460; IGROV-1; SK-MEL-28; HOP-92; A549; SF-268; KM12; CCRF-CEM.
Experiment in all cases: inhibition of tumour cell growth, NCI panel, 48 h

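Compound exposure: 48 hours, 5 concentrations, 96-well plates. The concentration for 50% growth inhibition is given as GI50.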 Active and inactive are the calls of the source. Cut-off read from the data, not from the text of the source: active = GI50 up to about 1.1 µM and inactive = higher.

As to `N#CC(NCCO)=C1C(=O)c2ccccc2C1=O`, the GI50 in the test with SNB-19, with TK-10, in the test on HOP-62, with Hs-578T, in the test on HCT-116 and in the test on RXF 393 was > 100 µM (inactive) in each case. For the same compound, the GI50 with MDA-N, with ACHN, with NCI-H226, in the test on A498, in the test on OVCAR-8 and in the test with OVCAR-3 was > 100 µM (inactive) in each case. Besides, the GI50 with NCI-H460, in the test on IGROV-1, with SK-MEL-28, in the test on HOP-92, in the test on A549 and in the test on SF-268 was > 100 µM (inactive) in each case. Also, the GI50 in the test on KM12 is > 100 µM (inactive).
Consider `CCCCN1CCC(O)(c2cc(C(=O)O)[nH]c2-c2cc(C)no2)C1=O` (stereo not given), for which the GI50 with SNB-19 was > 100 µM (inactive); in the test on TK-10, > 100 µM (inactive); with HOP-62, > 100 µM (inactive); in the test on Hs-578T, > 100 µM (inactive); in the test with HCT-116, > 100 µM (inactive); with RXF 393 it was 43.5 µM (inactive). For the same compound, the GI50 with MDA-N, in the test with ACHN, in the test with A498, in the test with OVCAR-8, in the test on OVCAR-3 and with NCI-H460 was > 100 µM (inactive) each time. For the same compound, the GI50 in the test with IGROV-1, in the test on SK-MEL-28, in the test on HOP-92, with A549, with SF-268 and in the test on KM12 was > 100 µM (inactive) each time.
With `CC1CCCOc2ccc(cc2)/C=N\c2ccc(cc2)CCc2ccc(cc2)/N=C\c2ccc(cc2)OCCC1`, the GI50 in the test on SNB-19, with TK-10, in the test on HOP-62, with Hs-578T, in the test with HCT-116 and in the test on MDA-N was > 100 µM (inactive) each time. Moreover, the GI50 in the test with ACHN, in the test on NCI-H226, in the test on A498, in the test with OVCAR-8, in the test on OVCAR-3 and with NCI-H460 was > 100 µM (inactive) in each case. In addition, the GI50 in the test with CCRF-CEM, with IGROV-1, in the test on SK-MEL-28, with HOP-92, in the test on A549 and with SF-268 was > 100 µM (inactive) each time. In the test on KM12, the GI50 is > 100 µM (inactive).
Take `Cc1ccc2c(c1)C(=O)/C(=C\c1ccccc1)CCS2(=O)=O`: the GI50 is 8.51 µM (inactive) in the test on SNB-19; 13.8 µM (inactive) in the test with TK-10; 20.9 µM (inactive) in the test with HOP-62; 15.8 µM (inactive) in the test on Hs-578T; 6.43 µM (inactive) in the test with HCT-116; 16.9 µM (inactive) with MDA-N. In addition, the GI50 is 11.4 µM (inactive) with ACHN; 15.7 µM (inactive) in the test with NCI-H226; 19.7 µM (inactive) in the test with A498; 11.6 µM (inactive) in the test with OVCAR-8; 13.1 µM (inactive) in the test on OVCAR-3; 9.12 µM (inactive) in the test with NCI-H460. Further, the GI50 with CCRF-CEM is 1.07 µM (active); with IGROV-1, 9.68 µM (inactive); with SK-MEL-28 it was 18.5 µM (inactive); in the test with HOP-92, 12.9 µM (inactive); in the test on A549 it was 12.9 µM (inactive); in the test with SF-268, 15.1 µM (inactive). The GI50 in the test with KM12 was 10.5 µM (inactive).
